Test results published in article PMC5214746, “Biological and Chemical Adaptation to Endogenous Hydrogen Peroxide Production in Streptococcus pneumoniae D39” (mSphere, 2017).

Target: T1, S. pneumoniae SpxB (pyruvate oxidase) (Streptococcus pneumoniae, UniProt A0A0H2ZP58)
T1 construct: recombinant from E. coli Rosetta BL21(DE3)/pLysS, pHis-parallel vector, His tag apparently kept
Experiment: H2O2 generation, peroxidase-coupled quinoneimine dye at […] nm
Assay type: biochemical
Settings: 0.2 mM pyruvate, 50 mM KH2PO4 pH 6, 0.2 mM FAD, 0.2 mM TPP, 0.5 to 2 mM Mg(II) or Mn(II), 37 °C

T1 sequence (A0A0H2ZP58 entry or part of it): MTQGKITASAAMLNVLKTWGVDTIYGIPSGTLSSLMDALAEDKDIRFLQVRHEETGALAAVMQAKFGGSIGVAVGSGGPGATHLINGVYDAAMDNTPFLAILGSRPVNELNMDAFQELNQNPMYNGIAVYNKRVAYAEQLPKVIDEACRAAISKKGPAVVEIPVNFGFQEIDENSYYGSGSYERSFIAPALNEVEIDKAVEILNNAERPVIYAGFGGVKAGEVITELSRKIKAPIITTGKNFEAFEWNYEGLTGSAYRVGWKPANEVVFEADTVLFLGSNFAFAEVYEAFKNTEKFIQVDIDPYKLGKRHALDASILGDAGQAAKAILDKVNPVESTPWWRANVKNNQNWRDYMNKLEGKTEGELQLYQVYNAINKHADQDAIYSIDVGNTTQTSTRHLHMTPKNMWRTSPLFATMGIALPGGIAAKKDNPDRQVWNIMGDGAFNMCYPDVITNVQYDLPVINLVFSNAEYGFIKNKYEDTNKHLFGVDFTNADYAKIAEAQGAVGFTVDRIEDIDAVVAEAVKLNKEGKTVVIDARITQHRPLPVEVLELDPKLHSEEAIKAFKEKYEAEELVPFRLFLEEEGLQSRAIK

For `CC(=O)C(=O)O` [sodium pyruvate], the “H2O2 generation, peroxidase-coupled quinoneimine dye at 550 nm” value was “Quinoneimine dye formation was monitored in triplicate with the addition of sodium pyruvate”.
